Laboratory results from patent US11203574B2 (BioCryst Pharmaceuticals, Inc., priority 2014, dated 2021).

Molecular target: human plasma kallikrein (Homo sapiens (Human), UniProt P03952)
Experiment: Plasma kallikrein activity assay (chromogenic substrate S2302)
Type: biochemical
Conditions: 2 nM kallikrein, 80 μM S2302, 30° C., pH 7.8; Ki by Cheng-Prusoff equation; values given as ranges; read-out: Ki
Procedure: Plasma Kallikrein Activity Assay.
The effect of compounds of the invention on human plasma kallikrein activity was determined using the chromogenic substrates (DiaPharma Group, Inc., West Chester, Ohio, USA). In these experiments, 2 nM kallikrein (Enzyme Research Laboratories, South Bend, Ind., USA) was incubated with 80 μM S2302 (H-D-Pro-Phe-Arg-p-nitroaniline) in the absence or presence of increasing concentrations of compounds of the invention in a final volume of 200 μL Tris-HCl buffer (200 mM NaCl; mM CaCl2; 50 mM Tris-HCl, pH 7.8).
Data were analyzed using SigmaPlot software (Systat Software, Inc., San Jose, Calif., USA) (Four Parameter Logistic Curve).

human plasma kallikrein, sequence (P03952 whole entry, looked up): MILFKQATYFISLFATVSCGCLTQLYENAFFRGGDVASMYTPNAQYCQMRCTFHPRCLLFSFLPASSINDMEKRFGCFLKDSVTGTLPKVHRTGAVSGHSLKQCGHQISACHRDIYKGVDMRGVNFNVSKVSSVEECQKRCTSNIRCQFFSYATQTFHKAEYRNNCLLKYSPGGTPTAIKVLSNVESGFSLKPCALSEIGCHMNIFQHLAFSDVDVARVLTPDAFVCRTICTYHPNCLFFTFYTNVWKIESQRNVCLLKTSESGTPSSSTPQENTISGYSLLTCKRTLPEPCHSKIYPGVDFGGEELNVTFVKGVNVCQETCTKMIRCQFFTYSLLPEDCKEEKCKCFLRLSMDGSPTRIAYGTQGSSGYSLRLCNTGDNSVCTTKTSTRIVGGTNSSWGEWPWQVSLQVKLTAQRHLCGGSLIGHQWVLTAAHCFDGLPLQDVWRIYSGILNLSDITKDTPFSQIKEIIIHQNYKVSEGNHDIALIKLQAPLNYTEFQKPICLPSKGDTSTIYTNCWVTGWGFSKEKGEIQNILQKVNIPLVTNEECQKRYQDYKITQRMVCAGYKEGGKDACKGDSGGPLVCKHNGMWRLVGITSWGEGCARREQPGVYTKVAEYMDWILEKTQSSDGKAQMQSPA
human plasma kallikrein, sequence (P03952 whole entry partner, looked up): as the sequence (P03952 whole entry, looked up) above

SMILES	Ki
Cn1cc(C(NCC2CC2)c2cccc(NC(=O)c3cc(C(F)(F)F)nn3-c3cccc(CN)c3)c2)cn1 (stereo not shown) [104f, 1-(3-(aminomethyl)phenyl)-N-(3-((cyclopropylmethylamino)(1-methyl-1H-pyrazol-4-yl)methyl)phenyl)-3-(trifluoromethyl)-1H-pyrazole-5-carboxamide]	0.1 to 50 nM
COc1ccc(C(NCC2CC2)c2cccc(NC(=O)c3cc(C(F)(F)F)nn3-c3cccc(CN)c3)c2)cc1 (stereo not shown) [105g, 1-(3-(Aminomethyl)phenyl)-N-(3-(((cyclopropylmethyl)amino)(4-methoxyphenyl)methyl)phenyl)-3-(trifluoromethyl)-1H-pyrazole-5-carboxamide]	0.1 to 50 nM
NCc1cccc(-n2nc(C(F)(F)F)cc2C(=O)Nc2cccc(C(NCC3CC3)c3ccccc3OCc3ccccc3)c2)c1 (stereo not shown) [106a, 1-(3-(aminomethyl)phenyl)-N-(3-((2-(benzyloxy)phenyl)(cyclopropylmethylamino)methyl)phenyl)-3-(trifluoromethyl)-1H-pyrazole-5-carboxamide]	0.1 to 50 nM
COc1cccc(C(NCC2CC2)c2cccc(NC(=O)c3cc(C(F)(F)F)nn3-c3cccc(CN)c3)c2)c1 (stereo not shown) [109f, 1-(3-(Aminomethyl)phenyl)-N-(3-((cyclopropylmethylamino)(3-methoxyphenyl)methyl)phenyl)-3-(trifluoromethyl)-1H-pyrazole-5-carboxamide]	0.1 to 50 nM
Cc1cccc(C(NCC2CC2)c2cccc(NC(=O)c3cc(C(F)(F)F)nn3-c3cccc(CN)c3)c2)c1 (stereo not shown) [110f, 1-(3-(Aminomethyl)phenyl)-N-(3-((cyclopropylmethylamino)(m-tolyl)methyl)phenyl)-3-(trifluoromethyl)-1H-pyrazole-5-carboxamide]	0.1 to 50 nM
NCc1cccc(-n2nc(C(F)(F)F)cc2C(=O)Nc2cccc(C(NCC3CC3)c3cccc(C(F)(F)F)c3)c2)c1 (stereo not shown) [111f, 1-(3-(Aminomethyl)phenyl)-N-(3-((cyclopropylmethylamino)(3-(trifluoromethyl)phenyl)methyl)phenyl)-3-(trifluoromethyl)-1H-pyrazole-5-carboxamide]	0.1 to 50 nM
NCc1cccc(-n2nc(C(F)(F)F)cc2C(=O)Nc2cccc(C(NCC3CC3)c3ccc(S(N)(=O)=O)cc3)c2)c1 (stereo not shown) [112g, 1-(3-(aminomethyl)phenyl)-N-(3-((cyclopropylmethylamino)(4-sulfamoylphenyl)methyl)phenyl)-3-(trifluoromethyl)-1H-pyrazole-5-carboxamide]	0.1 to 50 nM
CS(=O)(=O)c1ccc(C(NCC2CC2)c2cccc(NC(=O)c3cc(C(F)(F)F)nn3-c3cccc(CN)c3)c2)cc1 (stereo not shown) [113f, 1-(3-(aminomethyl)phenyl)-N-(3-((cyclopropylmethylamino)(4-(methylsulfonyl)phenyl)methyl)phenyl)-3-(trifluoromethyl)-1H-pyrazole-5-carboxamide]	0.1 to 50 nM
CS(=O)(=O)c1cccc(C(NCC2CC2)c2cccc(NC(=O)c3cc(C(F)(F)F)nn3-c3cccc(CN)c3)c2)c1 (stereo not shown) [114f, 1-(3-(aminomethyl)phenyl)-N-(3-((cyclopropylmethylamino)(3-(methylsulfonyl)phenyl)methyl)phenyl)-3-(trifluoromethyl)-1H-pyrazole-5-carboxamide]	0.1 to 50 nM
NCc1cccc(-n2nc(C(F)(F)F)cc2C(=O)Nc2cccc(C(NC(=O)C3CC3)c3ccccc3)c2)c1 (stereo not shown) [115e, 1-(3-(aminomethyl)phenyl)-N-(3-(cyclopropanecarboxamido(phenyl)methyl)phenyl)-3-(trifluoromethyl)-1H-pyrazole-5-carboxamide]	50 to 100 nM
CCc1cccc(C(NCC2CC2)c2cccc(NC(=O)c3cc(C(F)(F)F)nn3-c3cccc(CN)c3)c2)c1 (stereo not shown) [116e, 1-(3-(aminomethyl)phenyl)-N-(3-((cyclopropylmethylamino)(3-ethylphenyl)methyl)phenyl)-3-(trifluoromethyl)-1H-pyrazole-5-carboxamide]	0.1 to 50 nM
NCc1cccc(-n2nc(C(F)(F)F)cc2C(=O)Nc2cccc(C(NCC3CC3)c3ccccc3F)c2)c1 (stereo not shown) [117e, 1-(3-(aminomethyl)phenyl)-N-(3-((cyclopropylmethylamino)(2-fluorophenyl)methyl)phenyl)-3-(trifluoromethyl)-1H-pyrazole-5-carboxamide]	0.1 to 50 nM
NCc1cccc(-n2nc(C(F)(F)F)cc2C(=O)Nc2cccc(C(NCC3CC3)c3c4ccccc4c(Cl)c4ccccc34)c2)c1 (stereo not shown) [118f, 1-(3-(aminomethyl)phenyl)-N-(3-((10-chloroanthracen-9-yl)(cyclopropylmethylamino)methyl)phenyl)-3-(trifluoromethyl)-1H-pyrazole-5-carboxamide]	0.1 to 50 nM
CS(=O)(=O)c1ccccc1C(NCC1CC1)c1cccc(NC(=O)c2cc(C(F)(F)F)nn2-c2cccc(CN)c2)c1 (stereo not shown) [121f, 1-(3-(aminomethyl)phenyl)-N-(3-((cyclopropylmethylamino)(2-(methylsulfonyl)phenyl)methyl)phenyl)-3-(trifluoromethyl)-1H-pyrazole-5-carboxamide]	0.1 to 50 nM
Cc1ccc(C(NCC2CC2)c2cccc(NC(=O)c3cc(C(F)(F)F)nn3-c3cccc(CN)c3)c2)cc1 (stereo not shown) [122g, 1-(3-(aminomethyl)phenyl)-N-(3-(((cyclopropylmethyl)amino)(p-tolyl)methyl)phenyl)-3-(trifluoromethyl)-1H-pyrazole-5-carboxamide]	0.1 to 50 nM
NCc1cccc(-n2nc(C(F)(F)F)cc2C(=O)Nc2cccc(C(NCC3CC3)c3cccc(OC(F)(F)F)c3)c2)c1 (stereo not shown) [124f, 1-(3-(aminomethyl)phenyl)-N-(3-((cyclopropylmethylamino)(3-(trifluoromethoxy)phenyl)methyl)phenyl)-3-(trifluoromethyl)-1H-pyrazole-5-carboxamide]	0.1 to 50 nM
CN(C)c1ccc(C(NCC2CC2)c2cccc(NC(=O)c3cc(C(F)(F)F)nn3-c3cccc(CN)c3)c2)c2ccccc12 (stereo not shown) [126g, 2-(3-Aminomethyl-phenyl)-5-trifluoromethyl-2H-pyrazole-3-carboxylic acid {3-[(cyclopropylmethyl-amino)-(4-dimethylamino-naphthalen-1-yl)-methyl]-phenyl}-amide]	0.1 to 50 nM
CCCOc1ccc(C(NCC2CC2)c2cccc(NC(=O)c3cc(C(F)(F)F)nn3-c3cccc(CN)c3)c2)cc1 (stereo not shown) [127f, 1-(3-(Aminomethyl)phenyl)-N-(3-((cyclopropylmethylamino)(4-propoxyphenyl)methyl)phenyl)-3-(trifluoromethyl)-1H-pyrazole-5-carboxamide]	0.1 to 50 nM
NCc1cccc(-n2nc(C(F)(F)F)cc2C(=O)Nc2cccc(C(NCC3CC3)c3ccc4ccccc4c3)c2)c1 (stereo not shown) [128g, 1-(3-(aminomethyl)phenyl)-N-(3-((cyclopropylmethylamino)(naphthalen-2-yl)methyl)phenyl)-3-(trifluoromethyl)-1H-pyrazole-5-carboxamide]	0.1 to 50 nM
NCc1cccc(-n2nc(C(F)(F)F)cc2C(=O)Nc2cccc(C(NCC3CC3)c3cccc4ccccc34)c2)c1 (stereo not shown) [129f, 1-(3-(aminomethyl)phenyl)-N-(3-((cyclopropylmethylamino)(naphthalen-1-yl)methyl)phenyl)-3-(trifluoromethyl)-1H-pyrazole-5-carboxamide]	0.1 to 50 nM
NCc1cccc(-n2nc(C(F)(F)F)cc2C(=O)Nc2cc(C(NCC3CC3)c3cccc(N)c3)ccc2F)c1 (stereo not shown) [131b, 1-(3-(aminomethyl)phenyl)-N-(5-((3-aminophenyl)(cyclopropylmethylamino)methyl)-2-fluorophenyl)-3-(trifluoromethyl)-1H-pyrazole-5-carboxamide]	0.1 to 50 nM
NCc1cccc(-n2nc(C(F)(F)F)cc2C(=O)Nc2cc(C(NCC3CC3)c3ccncc3)ccc2F)c1 (stereo not shown) [132f, 1-(3-(aminomethyl)phenyl)-N-(5-(((cyclopropylmethyl)amino)(pyridin-4-yl)methyl)-2-fluorophenyl)-3-(trifluoromethyl)-1H-pyrazole-5-carboxamide]	0.1 to 50 nM
NCc1cccc(-n2nc(C(F)(F)F)cc2C(=O)Nc2cccc(C(NCC3CC3)c3ccc(-c4ccccc4)cc3)c2)c1 (stereo not shown) [133g, 1-(3-(aminomethyl)phenyl)-N-(3-(biphenyl-4-yl(cyclopropylmethylamino)methyl)phenyl)-3-(trifluoromethyl)-1H-pyrazole-5-carboxamide]	0.1 to 50 nM
COc1ccc2cc(C(NCC3CC3)c3cccc(NC(=O)c4cc(C(F)(F)F)nn4-c4cccc(CN)c4)c3)ccc2c1 (stereo not shown) [134f, 1-(3-(aminomethyl)phenyl)-N-(3-((cyclopropylmethylamino)(6-methoxynaphthalen-2-yl)methyl)phenyl)-3-(trifluoromethyl)-1H-pyrazole-5-carboxamide]	0.1 to 50 nM
NCc1cccc(-n2nc(C(F)(F)F)cc2C(=O)Nc2cccc(C(NCC3CC3)c3ccc(O)cc3)c2)c1 (stereo not shown) [135c, 1-(3-(aminomethyl)phenyl)-N-(3-(((cyclopropylmethyl)amino)(4-hydroxyphenyl)methyl)phenyl)-3-(trifluoromethyl)-1H-pyrazole-5-carboxamide]	0.1 to 50 nM
NCc1cccc(-n2nc(C(F)(F)F)cc2C(=O)Nc2cccc(C(NCC3CC3)c3cccc(O)c3)c2)c1 (stereo not shown) [137a, 1-(3-(Aminomethyl)phenyl)-N-(3-((cyclopropylmethylamino)(3-hydroxyphenyl)methyl)phenyl)-3-(trifluoromethyl)-1H-pyrazole-5-carboxamide]	0.1 to 50 nM
CC(=O)Nc1ccc(C(NCC2CC2)c2cccc(NC(=O)c3cc(C(F)(F)F)nn3-c3cccc(CN)c3)c2)cc1 (stereo not shown) [138f, N-(3-((4-acetamidophenyl)(cyclopropylmethylamino)methyl)phenyl)-1-(3-(aminomethyl)phenyl)-3-(trifluoromethyl)-1H-pyrazole-5-carboxamide]	0.1 to 50 nM

Same assay, conditions: Ki, 2 nM kallikrein, 80 μM S2302, 30° C., pH 7.8; Ki by Cheng-Prusoff equation; values given as ranges

SMILES	Ki
NCc1cccc(-n2nc(C(F)(F)F)cc2C(=O)Nc2cccc(C(NCC3CC3)c3cc4ccccc4c4ccccc34)c2)c1 (stereo not shown) [125g, 1-(3-(Aminomethyl)phenyl)-N-(3-((cyclopropylmethylamino)(phenanthren-9-yl)methyl)phenyl)-3-(trifluoromethyl)-1H-pyrazole-5-carboxamide]	0.1 to 50 nM
